Measured values from ChEMBL document CHEMBL3045429, “Exploration of antimicrobial potential of pyrazolo[3,4-b]pyridine scaffold bearing benzenesulfonamide and trifluoromethyl moieties” (2013).
In brackets after ≈: the same amount, converted by molar mass. Activity calls are given as the source filed them. No cut-off for these calls is given here.

Key:
Bacillus subtilis [1] = experiment: Antibacterial activity against Bacillus subtilis MTCC 121 assessed as growth inhibition after 24 hr by agar well diffusion method; format: functional; conditions: MTCC 121, 24 h
Staphylococcus aureus [2] = experiment: Antibacterial activity against Staphylococcus aureus MTCC 96 assessed as growth inhibition after 24 hr by agar well diffusion method; format: functional; conditions: MTCC 96, 24 h
Candida albicans = experiment: Antifungal activity against Candida albicans MTCC 227 assessed as growth inhibition at 4 mg/mL after 24 hr by agar well diffusion method; format: functional
Saccharomyces cerevisiae = experiment: Antifungal activity against Saccharomyces cerevisiae MTCC 170 assessed as growth inhibition at 4 mg/mL after 24 hr by agar well diffusion method; format: functional
Escherichia coli = experiment: Antibacterial activity against Escherichia coli MTCC 1652 assessed as growth inhibition at 4 mg/mL after 24 hr by agar well diffusion method; format: functional, organism-based
Bacillus subtilis [3] = experiment: Antibacterial activity against Bacillus subtilis MTCC 121 assessed as growth inhibition at 4 mg/mL after 24 hr by agar well diffusion method; format: functional; conditions: for zone of inhibition at 4000 µg/mL: MTCC 121, 24 h, read-out: DIZ
Staphylococcus aureus [4] = experiment: Antibacterial activity against Staphylococcus aureus MTCC 96 assessed as growth inhibition at 4 mg/mL after 24 hr by agar well diffusion method; format: functional; conditions: for zone of inhibition at 4000 µg/mL: MTCC 96, 24 h, read-out: DIZ

| Compound | MIC (Bacillus subtilis [1]) | MIC (Staphylococcus aureus [2]) | growth inhibition (GI) (Candida albicans) | growth inhibition (GI) (Saccharomyces cerevisiae) | growth inhibition (GI) (Escherichia coli) | zone of inhibition at 4000 µg/mL (Bacillus subtilis [3]) | zone of inhibition at 4000 µg/mL (Staphylococcus aureus [4]) | growth inhibition (GI) (Bacillus subtilis [3]) | growth inhibition (GI) (Staphylococcus aureus [4]) |
| --- | --- | --- | --- | --- | --- | --- | --- | --- | --- |
| NS(=O)(=O)c1ccc(-n2nc(-c3ccc(Cl)cc3)c3c(C(F)(F)F)cc(-c4ccc5ccccc5c4)nc32)cc1 | 128 µg/mL (≈ 221 µM) | 128 µg/mL (≈ 221 µM) | inactive | inactive | inactive | 16.3 mm | 15.3 mm | – | – |
| Cc1ccc(-c2nn(-c3ccc(S(N)(=O)=O)cc3)c3nc(-c4ccccc4)cc(C(F)(F)F)c23)cc1 | 128 µg/mL (≈ 252 µM) | 64 µg/mL (≈ 126 µM) | inactive | inactive | inactive | 17.6 mm | 18.3 mm | – | – |
| NS(=O)(=O)c1ccc(-n2nc(-c3ccccc3)c3c(C(F)(F)F)cc(-c4ccc(Cl)cc4)nc32)cc1 | 128 µg/mL (≈ 242 µM) | 128 µg/mL (≈ 242 µM) | inactive | inactive | inactive | 16.3 mm | 15 mm | – | – |
| NS(=O)(=O)c1ccc(-n2nc(-c3ccc(Cl)cc3)c3c(C(F)(F)F)cc(-c4ccc(Cl)cc4)nc32)cc1 | – | – | inactive | inactive | inactive | – | – | inactive | inactive |
| Cc1ccc(-c2nn(-c3ccc(S(N)(=O)=O)cc3)c3nc(-c4ccc(Cl)cc4)cc(C(F)(F)F)c23)cc1 | 128 µg/mL (≈ 236 µM) | 128 µg/mL (≈ 236 µM) | inactive | inactive | inactive | 16.3 mm | 15.6 mm | – | – |
| NS(=O)(=O)c1ccc(-n2nc(-c3ccc(Cl)cc3)c3c(C(F)(F)F)cc(-c4ccc(F)cc4)nc32)cc1 | – | – | inactive | inactive | inactive | – | – | inactive | inactive |
| Cc1ccc(-c2nn(-c3ccc(S(N)(=O)=O)cc3)c3nc(-c4ccc(Br)cc4)cc(C(F)(F)F)c23)cc1 | 128 µg/mL (≈ 218 µM) | 256 µg/mL (≈ 436 µM) | inactive | inactive | inactive | 15.6 mm | 14.3 mm | – | – |
| Cc1ccc(-c2cc(C(F)(F)F)c3c(-c4ccc(Cl)cc4)nn(-c4ccc(S(N)(=O)=O)cc4)c3n2)cc1 | – | – | inactive | inactive | inactive | – | – | inactive | inactive |
| NS(=O)(=O)c1ccc(-n2nc(-c3ccc(Cl)cc3)c3c(C(F)(F)F)cc(-c4ccc(Br)cc4)nc32)cc1 | – | – | inactive | inactive | inactive | – | – | inactive | inactive |
| Cc1ccc(-c2cc(C(F)(F)F)c3c(-c4ccc(C)cc4)nn(-c4ccc(S(N)(=O)=O)cc4)c3n2)cc1 | 128 µg/mL (≈ 245 µM) | 128 µg/mL (≈ 245 µM) | inactive | inactive | inactive | 16.3 mm | 15.3 mm | – | – |
| NS(=O)(=O)c1ccc(-n2nc(-c3ccc(Cl)cc3)c3c(C(F)(F)F)cc(-c4ccccc4)nc32)cc1 | – | – | inactive | inactive | inactive | – | – | inactive | inactive |
| COc1ccc(-c2cc(C(F)(F)F)c3c(-c4ccc(Cl)cc4)nn(-c4ccc(S(N)(=O)=O)cc4)c3n2)cc1 | – | – | inactive | inactive | inactive | – | – | inactive | inactive |
